#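 Interpolation was linear, between the two tested concentrations surrounding the appropriate level; five concentrations were tested over 48 hours in 96-well plates. GI50 = concentration required for 50% inhibition of growth. Definition used: TGI = concentration required for complete inhibition of growth.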
# Experiments:
# Assay in all cases: inhibition of tumour cell growth, NCI panel, 48 h
# UACC-257 melanoma = tested on: UACC-257 melanoma
# SK-MEL-5 melanoma = tested on: SK-MEL-5 melanoma
# SK-MEL-28 melanoma = tested on: SK-MEL-28 melanoma
# SF-268 CNS = tested on: SF-268 CNS
# NCI-H460 lung = tested on: NCI-H460 lung
# RPMI-8226 leukemia = tested on: RPMI-8226 leukemia
# MDA-MB-231 breast = tested on: MDA-MB-231 breast
# KM12 colon = tested on: KM12 colon
# A549 NSCLC = tested on: A549 NSCLC
# ACHN renal = tested on: ACHN renal
# MCF7 breast = tested on: MCF7 breast
# SNB-75 CNS = tested on: SNB-75 CNS
# SK-MEL-2 melanoma = tested on: SK-MEL-2 melanoma
# PC-3 prostate = tested on: PC-3 prostate
# U251 CNS = tested on: U251 CNS
# NCI/ADR-RES ovarian = tested on: NCI/ADR-RES ovarian
# M14 melanoma = tested on: M14 melanoma
# SR leukemia = tested on: SR leukemia
# OVCAR-5 ovarian = tested on: OVCAR-5 ovarian
# EKVX NSCLC = tested on: EKVX NSCLC
# UO-31 renal = tested on: UO-31 renal
# 786-0 renal = tested on: 786-0 renal
# MOLT-4 leukemia = tested on: MOLT-4 leukemia
# SF-295 CNS = tested on: SF-295 CNS
# A498 renal = tested on: A498 renal
# DU-145 prostate = tested on: DU-145 prostate
# TK-10 renal = tested on: TK-10 renal
# CAKI-1 renal = tested on: CAKI-1 renal
# LOX IMVI melanoma = tested on: LOX IMVI melanoma
# SK-OV-3 ovarian = tested on: SK-OV-3 ovarian
# IGROV1 ovarian = tested on: IGROV1 ovarian
# HOP-92 NSCLC = tested on: HOP-92 NSCLC
# SNB-19 CNS = tested on: SNB-19 CNS
# SF-539 CNS = tested on: SF-539 CNS
# OVCAR-4 ovarian = tested on: OVCAR-4 ovarian
# UACC-62 melanoma = tested on: UACC-62 melanoma
# HOP-62 NSCLC = tested on: HOP-62 NSCLC
# K-562 leukemia = tested on: K-562 leukemia
# NCI-H23 lung = tested on: NCI-H23 lung
# T-47D breast = tested on: T-47D breast
# CCRF-CEM leukemia = tested on: CCRF-CEM leukemia
# NCI-H522 lung = tested on: NCI-H522 lung
# OVCAR-3 ovarian = tested on: OVCAR-3 ovarian
# OVCAR-8 ovarian = tested on: OVCAR-8 ovarian
# HT29 colon = tested on: HT29 colon
# HCC-2998 colon = tested on: HCC-2998 colon
# HS 578T breast = tested on: HS 578T breast
# HCT-15 colon = tested on: HCT-15 colon
# MDA-MB-435 = tested on: MDA-MB-435
# SW-620 colon = tested on: SW-620 colon
# SN12C renal = tested on: SN12C renal
# MALME-3M melanoma = tested on: MALME-3M melanoma
# BT-549 breast = tested on: BT-549 breast
# RXF 393 renal = tested on: RXF 393 renal
# NCI-H226 lung = tested on: NCI-H226 lung
# HL-60(TB) leukemia = tested on: HL-60(TB) leukemia
# HCT-116 colon = tested on: HCT-116 colon
# COLO 205 colon = tested on: COLO 205 colon
structure (smiles),measurement,setting,value
C=C1C(=O)O[C@@H]2[C@@H]3O[C@@H](C[C@@H]13)[C@](C)(O)CC/C=C(\C)CCC[C@H]2C,GI50,UACC-257 melanoma,4.9 µM
same,TGI,UACC-257 melanoma,14.9 µM
same,GI50,SK-MEL-5 melanoma,5.57 µM
same,TGI,SK-MEL-5 melanoma,13.9 µM
same,GI50,SK-MEL-28 melanoma,2.36 µM
same,TGI,SK-MEL-28 melanoma,> 21.8 µM
same,GI50,SF-268 CNS,> 100 µM
same,TGI,SF-268 CNS,> 100 µM
same,GI50,NCI-H460 lung,> 100 µM
same,TGI,NCI-H460 lung,> 100 µM
same,GI50,RPMI-8226 leukemia,0.258 µM
same,TGI,RPMI-8226 leukemia,1.47 µM
same,GI50,MDA-MB-231 breast,1.51 µM
same,TGI,MDA-MB-231 breast,4.14 µM
same,GI50,KM12 colon,6.35 µM
same,TGI,KM12 colon,18.1 µM
same,GI50,A549 NSCLC,9.21 µM
same,TGI,A549 NSCLC,25.2 µM
same,GI50,ACHN renal,0.926 µM
same,TGI,ACHN renal,2.34 µM
same,GI50,MCF7 breast,> 100 µM
same,TGI,MCF7 breast,> 100 µM
same,GI50,SNB-75 CNS,14.1 µM
same,TGI,SNB-75 CNS,> 35.8 µM
same,GI50,SK-MEL-2 melanoma,9.32 µM
same,TGI,SK-MEL-2 melanoma,24.2 µM
same,GI50,PC-3 prostate,1.76 µM
same,TGI,PC-3 prostate,5.27 µM
same,GI50,U251 CNS,2.84 µM
same,TGI,U251 CNS,12.8 µM
same,GI50,NCI/ADR-RES ovarian,0.523 µM
same,TGI,NCI/ADR-RES ovarian,2.13 µM
same,GI50,M14 melanoma,1.83 µM
same,TGI,M14 melanoma,3.75 µM
same,GI50,SR leukemia,0.395 µM
same,TGI,SR leukemia,2.05 µM
same,GI50,OVCAR-5 ovarian,3.19 µM
same,TGI,OVCAR-5 ovarian,12.6 µM
same,GI50,EKVX NSCLC,7.55 µM
same,TGI,EKVX NSCLC,20 µM
same,GI50,UO-31 renal,1.25 µM
same,TGI,UO-31 renal,2.79 µM
same,GI50,786-0 renal,2.56 µM
same,TGI,786-0 renal,9.03 µM
same,GI50,MOLT-4 leukemia,1.39 µM
same,TGI,MOLT-4 leukemia,3.37 µM
same,GI50,SF-295 CNS,9.38 µM
same,TGI,SF-295 CNS,23.9 µM
same,GI50,A498 renal,20.9 µM
same,TGI,A498 renal,35.5 µM
same,GI50,DU-145 prostate,3.08 µM
same,TGI,DU-145 prostate,12.6 µM
same,GI50,TK-10 renal,1.5 µM
same,TGI,TK-10 renal,3.26 µM
same,GI50,CAKI-1 renal,0.957 µM
same,TGI,CAKI-1 renal,2.59 µM
same,GI50,LOX IMVI melanoma,1.51 µM
same,TGI,LOX IMVI melanoma,3 µM
same,GI50,SK-OV-3 ovarian,28.7 µM
same,TGI,SK-OV-3 ovarian,> 50.4 µM
same,GI50,IGROV1 ovarian,1.06 µM
same,TGI,IGROV1 ovarian,4.92 µM
same,GI50,HOP-92 NSCLC,0.5 µM
same,TGI,HOP-92 NSCLC,2.39 µM
same,GI50,SNB-19 CNS,29 µM
same,TGI,SNB-19 CNS,> 49 µM
same,GI50,SF-539 CNS,13 µM
same,TGI,SF-539 CNS,25.7 µM
same,GI50,OVCAR-4 ovarian,2.38 µM
same,TGI,OVCAR-4 ovarian,> 23 µM
same,GI50,UACC-62 melanoma,3.51 µM
same,TGI,UACC-62 melanoma,14.1 µM
same,TGI,HOP-62 NSCLC,31.7 µM
same,GI50,K-562 leukemia,0.416 µM
same,TGI,K-562 leukemia,4.01 µM
same,TGI,NCI-H23 lung,3.67 µM
same,TGI,T-47D breast,> 22.6 µM
same,GI50,CCRF-CEM leukemia,0.394 µM
same,TGI,CCRF-CEM leukemia,1.91 µM
same,GI50,NCI-H522 lung,1.65 µM
same,TGI,NCI-H522 lung,4.05 µM
same,GI50,OVCAR-3 ovarian,1.65 µM
same,TGI,OVCAR-3 ovarian,3.86 µM
same,GI50,OVCAR-8 ovarian,1.91 µM
same,TGI,OVCAR-8 ovarian,10.4 µM
same,GI50,HT29 colon,3.69 µM
same,TGI,HT29 colon,> 33.9 µM
same,GI50,HCC-2998 colon,0.83 µM
same,TGI,HCC-2998 colon,3.88 µM
same,GI50,HS 578T breast,5.99 µM
same,TGI,HS 578T breast,24.9 µM
same,GI50,HCT-15 colon,1.39 µM
same,TGI,HCT-15 colon,2.74 µM
same,GI50,MDA-MB-435,1.97 µM
same,TGI,MDA-MB-435,6.17 µM
same,GI50,SW-620 colon,0.739 µM
same,TGI,SW-620 colon,2.31 µM
same,GI50,SN12C renal,2.06 µM
same,TGI,SN12C renal,6.64 µM
same,GI50,MALME-3M melanoma,0.18 µM
same,TGI,MALME-3M melanoma,2.61 µM
same,GI50,BT-549 breast,1.84 µM
same,TGI,BT-549 breast,4.86 µM
same,GI50,RXF 393 renal,1.77 µM
same,GI50,NCI-H226 lung,2.08 µM
same,TGI,NCI-H226 lung,7.4 µM
C[N+]1([O-])CCC(O)(C2CC2)CC1 (centres undefined),TGI,UACC-257 melanoma,> 100 µM
same,TGI,SK-MEL-5 melanoma,> 100 µM
same,TGI,SK-MEL-28 melanoma,> 100 µM
same,TGI,SF-268 CNS,> 100 µM
same,TGI,RPMI-8226 leukemia,> 100 µM
same,TGI,MDA-MB-231 breast,> 100 µM
same,TGI,KM12 colon,> 100 µM
same,TGI,HL-60(TB) leukemia,> 100 µM
same,TGI,A549 NSCLC,> 100 µM
same,TGI,ACHN renal,> 100 µM
same,TGI,MCF7 breast,> 100 µM
same,TGI,SNB-75 CNS,> 100 µM
same,TGI,SK-MEL-2 melanoma,> 100 µM
same,TGI,PC-3 prostate,> 100 µM
same,TGI,U251 CNS,> 100 µM
same,TGI,NCI/ADR-RES ovarian,> 100 µM
same,TGI,M14 melanoma,> 100 µM
same,TGI,SR leukemia,> 100 µM
same,TGI,OVCAR-5 ovarian,> 100 µM
same,TGI,EKVX NSCLC,> 100 µM
same,TGI,UO-31 renal,> 100 µM
same,TGI,786-0 renal,> 100 µM
same,TGI,HCT-116 colon,> 100 µM
same,TGI,MOLT-4 leukemia,> 100 µM
same,TGI,SF-295 CNS,> 100 µM
same,TGI,DU-145 prostate,> 100 µM
same,TGI,TK-10 renal,> 100 µM
same,TGI,CAKI-1 renal,> 100 µM
same,TGI,LOX IMVI melanoma,> 100 µM
same,TGI,SK-OV-3 ovarian,> 100 µM
same,TGI,IGROV1 ovarian,> 100 µM
same,TGI,SNB-19 CNS,> 100 µM
same,TGI,OVCAR-4 ovarian,> 100 µM
same,TGI,UACC-62 melanoma,> 100 µM
same,TGI,HOP-62 NSCLC,> 100 µM
same,TGI,K-562 leukemia,> 100 µM
same,TGI,NCI-H23 lung,> 100 µM
same,TGI,T-47D breast,> 100 µM
same,TGI,COLO 205 colon,> 100 µM
same,TGI,CCRF-CEM leukemia,> 100 µM
same,TGI,OVCAR-3 ovarian,> 100 µM
same,TGI,OVCAR-8 ovarian,> 100 µM
same,TGI,HT29 colon,> 100 µM
same,TGI,HCC-2998 colon,> 100 µM
same,TGI,HS 578T breast,> 100 µM
same,TGI,HCT-15 colon,> 100 µM
same,TGI,MDA-MB-435,> 100 µM
same,TGI,SW-620 colon,> 100 µM
same,TGI,SN12C renal,> 100 µM
same,TGI,MALME-3M melanoma,> 100 µM
same,TGI,BT-549 breast,> 100 µM
same,TGI,RXF 393 renal,> 100 µM
same,TGI,NCI-H226 lung,> 100 µM

# From PubChem BioAssay (NCI)
